The source of these data is patent publication US9440941B2, “Substituted chroman-6-yloxy-cycloalkanes and their use as pharmaceuticals” (SANOFI, priority 2013, dated 2016).

pIC50: −log10 of the molar value. Structures can show the parent of a compound that is named as a salt. Where two headings read alike, the source gives them in different places.

The target of this experiment is T1, human NCX1 (Homo sapiens, UniProt P32418).
T1 construct: expressed in transfected cells
In words: Inhibition of Ca2+ influx into cells (NCX1 reverse mode), FLIPR Fluo-4 assay. It counts as cell-based. As to conditions: for inhibition at 10 µM: NCX1 reverse mode, IC50 value not determined; for pIC50: inhibition of NCX1 in reverse mode (Ca2+ influx into cells), read-out: NCX1rv IC50. The essentials:
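Ca2+ influx via reverse-mode exchange was evoked with gramicidin (20 µM final) after 45 min compound exposure at 16 °C in stably transfected CHO cells. Fluo-4 signal (520 nm) was followed on FLIPR at 2 s intervals. Max–min fluorescence gave percentage inhibition, from which IC50 was calculated.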

Setting [1] is: read-out: NCX1rv inhibition in % at 10 μM.

`CSCCNC1CCC(Oc2ccc3c(c2)CCC(c2ccccc2C)O3)CC1` (stereo not drawn) [compound 192]: the inhibition at 10 µM under setting [1] is 98%. Take `CC(C)OCCCNC1CCC(Oc2ccc3c(c2)CCC(c2ccccc2F)O3)CC1` (stereo not drawn) [compound 225]: the pIC50 was 5.41.

Turning to `Cc1ccccc1C1CCc2cc(O[C@H]3CC[C@H](NCC4CCOC4)CC3)ccc2O1` (relative stereo) [compound 154, (Tetrahydrofuran-3-ylmethyl)-[trans-4-(2-o-tolyl-chroman-6-yloxy)-cyclohexyl]-amine], the pIC50 was 5.66. Same read-out and setting: with `Fc1ccccc1C1CCc2cc(OC3CCC(NCCC4CCOCC4)CC3)ccc2O1` (stereo not drawn) [compound 220] the figure was 5.62; with `O=S1(=O)CCC(NC2CCC(Oc3ccc4c(c3)CCC(c3ccccc3F)O4)CC2)C1` (stereo not drawn) [compound 210], 5.96. With “1,1-Dioxo-N-[4-(2-phenylchroman-6-yloxy)cyclohexyl]-tetrahydrothiophen-3-ylamine [compound 147]”, the pIC50 is 6.15.

In the case of `CCCC(C)NC1CCC(Oc2ccc3c(c2)CCC(c2ccccc2)O3)CC1` (stereo not drawn) [compound 106], the pIC50 was 6.10. On the same count and under the same terms, with `Cc1cc2c(cc1OC1CCC(C(=O)NCCO)CC1)CCC(c1ccccc1C)O2` (stereo not drawn) [compound 288] the figure was 5.72; with `Cc1cc(C(=O)N[C@H]2CC[C@H](Oc3ccc4c(c3)CCC(c3ccccc3F)O4)CC2)n[nH]1` (relative stereo) [compound 261], 6.52.

Regarding `Cc1ccn(CC(=O)N[C@H]2CC[C@H](Oc3ccc4c(c3)CCC(c3ccccc3F)O4)CC2)n1` (relative stereo) [compound 250], the pIC50 was 6.10. Same read-out and setting: with `CS(=O)(=O)NC[C@H]1CC[C@@H](Oc2ccc3c(c2)CCC(c2ccccc2)O3)CC1` (relative stereo) [compound 3] the figure was 6.15. As to `O=C(CCn1cccn1)N[C@H]1CC[C@H](Oc2ccc3c(c2)CCC(c2ccccc2)O3)CC1` (relative stereo) [compound 39], the pIC50 was 6.52. On the same count and under the same terms, the result for `Cc1nc(CN(Cc2csc(C)n2)[C@H]2CC[C@H](Oc3ccc4c(c3)CCC(c3ccccc3)O4)CC2)cs1` (stereo partly drawn) [compound 86, N,N-Bis(2-methylthiazol-4-ylmethyl)-[trans-4-(2-phenylchroman-6-yloxy)]-cyclohexylamine] reads 6.10. For the compound `Cc1ccccc1C1CCc2cc(OC3CCC(NCCCOC(C)C)CC3)ccc2O1` (stereo not drawn) [compound 190], under setting [1], the inhibition at 10 µM came out at 93%. In the case of `c1ccc(C2CCc3cc(O[C@H]4CC[C@H](NCc5nccs5)CC4)ccc3O2)cc1` (relative stereo) [compound 55], the pIC50 was 6.40.

With `O=C(NCc1ccnc(Cl)c1)C1CCC(Oc2ccc3c(c2)CCC(c2ccccc2F)O3)CC1` (stereo not drawn) [compound 184], the pIC50 is 5.89. Same read-out and setting: with `c1ccc(C2CCc3cc(OC4CCC(NCCCC5CCOC5)CC4)ccc3O2)cc1` (stereo not drawn) [compound 116] the figure was 6.22. The same measure, in the same setting: with `COCCNC1CCC(Oc2ccc3c(c2)CCC(c2ccccc2F)O3)CC1` (stereo not drawn) [compound 214] the figure was 5.80; with `NCC(=O)NC1CCC(Oc2ccc3c(c2)CCC(c2ccccc2)O3)CC1` (stereo not drawn) [compound 12, hydrochloride], 6.70; with `CCOCCCNC1CCC(Oc2ccc3c(c2)CCC(c2ccccc2)O3)CC1` (stereo not drawn) [compound 112], 6.05. With `COCC(C)(C)CNC1CCC(Oc2ccc3c(c2)CCC(c2ccccc2)O3)CC1` (stereo not drawn) [compound 115], the pIC50 is 6.00. The same measure, in the same setting: the result for `O=C(NCc1ccno1)C1CCC(Oc2ccc3c(c2)CCC(c2ccccc2F)O3)CC1` (stereo not drawn) [compound 174] reads 6.22; that for “4-(2-Phenylchroman-6-yloxy)-N-(2-pyrrolidin-1-ylethyl)cyclohexylamine [compound 137]”, 5.89; that for `Cc1ccccc1C1CCc2cc(OC3CCC(NC4CC4)CC3)ccc2O1` (stereo not drawn) [compound 203], 5.82. Still for that read-out and setting: the result for `N[C@@H]1CC[C@@H](Oc2ccc3c(c2)CCC(c2ccccc2)O3)C1` (stereo partly drawn) [compound 304, hydrochloride] reads 6.22; that for `Cc1n[nH]c(C)c1CC(=O)N[C@H]1CC[C@H](Oc2ccc3c(c2)CCC(c2ccccc2F)O3)CC1` (relative stereo) [compound 235], 5.82; that for `Cc1ccn(CC(=O)N[C@H]2CC[C@H](Oc3ccc4c(c3)CCC(c3ccccc3)O4)CC2)n1` (relative stereo) [compound 28], 6.70. On the same count and under the same terms, the result for `Cc1nn(C)c(C)c1CNC1CCC(Oc2ccc3c(c2)CCC(c2ccccc2F)O3)CC1` (stereo not drawn) [compound 169] reads 5.60.

Take `Cc1ccccc1C1CCc2cc(OC3CCC(NCCC4CCOCC4)CC3)ccc2O1` (stereo not drawn) [compound 196]: under “read-out: Inhibition in % at 10 μM (NCX1rv)”, the inhibition at 10 µM is 97%. Take `c1ccc(C2CCc3cc(OC4CCC(NCCSC5CCCCC5)CC4)ccc3O2)cc1` (stereo not drawn) [compound 117]: the pIC50 is 5.43. The same measure, in the same setting: the result for `Cc1n[nH]cc1CN[C@H]1CC[C@H](Oc2ccc3c(c2)CCC(c2ccccc2)O3)CC1` (stereo partly drawn) [compound 66] reads 6.40; that for `c1ccc(C2CCc3cc(O[C@H]4CC[C@H](NCC5CCCCC5)CC4)ccc3O2)cc1` (stereo partly drawn) [compound 63, N-(Cyclohexylmethyl)-[trans-4-(2-phenylchroman-6-yloxy)]-cyclohexylamine], 6.22; that for `CC(C)C(C)NC1CCC(Oc2ccc3c(c2)CCC(c2ccccc2)O3)CC1` (stereo not drawn) [compound 109], 6.00. On the same count and under the same terms, with `c1ccc(C2CCc3cc(OC4CCC(NC5CCOCC5)CC4)ccc3O2)cc1` (stereo not drawn) [compound 125] the figure was 5.72; with `CC(=O)OC1CCC(Oc2ccc3c(c2)CCC(c2ccccc2)O3)CC1` (stereo not drawn) [compound 78, [4-(2-Phenylchroman-6-yloxy)cyclohexyl] acetate], 6.22; with `Cc1c(F)cccc1C1CCc2cc(OC3CCC(C(=O)NC4CCCC4O)CC3)ccc2O1` (single isomer, unassigned; stereoisomer 2) [compound 280, 4-[2-(3-Fluoro-2-methyl-phenyl)chroman-6-yloxy]-N-(2-hydroxycyclopentyl)cyclohexane-carboxamide, stereoisomer 2 (2)], 7.00. On to `Cc1nc(C(=O)N[C@H]2CC[C@H](Oc3ccc4c(c3)CCC(c3ccccc3F)O4)CC2)cs1` (relative stereo) [compound 247], for which the pIC50 is 6.52. The same measure, in the same setting: the result for `CC1Cc2cc(OC3CCC(C(=O)NCc4ccno4)CC3)ccc2OC1c1ccccc1` (stereo not drawn) [compound 298] reads 5.85; that for `CS(=O)(=O)CCC(=O)N[C@H]1CC[C@H](Oc2ccc3c(c2)CCC(c2ccccc2F)O3)CC1` (relative stereo) [compound 259], 7.00.

Regarding `N[C@H]1CC[C@@H](Oc2ccc3c(c2)CCC(c2ccccc2)O3)CC1` (relative stereo) [compound 2, hydrochloride], the pIC50 is 5.89. Regarding `CSCCCN[C@H]1CC[C@H](Oc2ccc3c(c2)CCC(c2ccccc2)O3)CC1` (stereo partly drawn) [compound 48, N-(3-Methylsulfanylpropyl)-[trans-4-(2-phenylchroman-6-yloxy)]-cyclohexylamine], the pIC50 is 6.30.

Consider `O=C(NCc1ccno1)C1CCC(Oc2ccc3c(c2Cl)CCC(c2ccccc2)O3)CC1` (stereo not drawn) [compound 292], for which the pIC50 is 5.72. On the same count and under the same terms, with `O=C(N[C@H]1CC[C@H](Oc2ccc3c(c2)CCC(c2ccccc2)O3)CC1)c1ccncc1F` (relative stereo) [compound 31] the figure was 7.00; with `Cc1csc(CN[C@H]2CC[C@H](Oc3ccc4c(c3)CCC(c3ccccc3)O4)CC2)n1` (stereo partly drawn) [compound 52, N-[(4-Methylthiazol-2-yl)methyl]-[trans-4-(2-phenylchroman-6-yloxy)]-cyclohexylamine], 6.30; with “N-[2-(1-Isopropylpiperidin-4-yl)ethyl]-4-(2-phenylchroman-6-yloxy)-cyclohexylamine [compound 136]”, 5.74. Take `CCSCCNC1CCC(Oc2ccc3c(c2)CCC(c2ccccc2C)O3)CC1` (stereo not drawn) [compound 191]: under setting [1], the inhibition at 10 µM came out at 95%. As to `CC(C)CCCNC1CCC(Oc2ccc3c(c2)CCC(c2ccccc2)O3)CC1` (stereo not drawn) [compound 107], the pIC50 was 6.10. On the same count and under the same terms, with `CCC(C)CN(CCO)C1CCC(Oc2ccc3c(c2)CCC(c2ccccc2)O3)CC1` (stereo not drawn) [compound 100] the figure was 5.85; with `N[C@H]1CC[C@H](Oc2ccc3c(c2)CC[C@@H](c2ccccc2)O3)CC1` [compound 10, hydrochloride], 6.52; with `Fc1ccccc1C1CCc2cc(OC3CCC(NCCN4CCSCC4)CC3)ccc2O1` (stereo not drawn) [compound 227], 5.37.

Consider `CCn1cc(CN[C@H]2CC[C@H](Oc3ccc4c(c3)CCC(c3ccccc3)O4)CC2)c(C)n1` (stereo partly drawn) [compound 68, N-(1-Ethyl-3-methyl-pyrazol-4-ylmethyl)-[trans-4-(2-phenylchroman-6-yloxy)]-cyclohexylamine], for which the pIC50 was 6.52. Same read-out and setting: the result for `Cc1c(F)cccc1C1CCc2cc(OC3CCC(C(=O)NCCS(=O)(=O)N(C)C)CC3)ccc2O1` (stereo not drawn) [compound 274] reads 6.22; that for `CCC(C)CNC1CCC(Oc2ccc3c(c2)CCC(c2ccccc2)O3)CC1` (stereo not drawn) [compound 101], 6.05. On the same count and under the same terms, with `CCC(C)CN(CC(C)CC)[C@H]1CC[C@H](Oc2ccc3c(c2)CCC(c2ccccc2)O3)CC1` (stereo partly drawn) [compound 88, N,N-Bis(2-methylbutyl)-[trans-4-(2-phenylchroman-6-yloxy)]-cyclohexylamine] the figure was 5.60; with `CC(=O)N[C@H]1CC[C@H](Oc2ccc3c(c2)CCC(c2ccccc2)O3)CC1` (relative stereo) [compound 7], 6.52; with `CSCC(=O)N[C@H]1CC[C@H](Oc2ccc3c(c2)CCC(c2ccccc2F)O3)CC1` (relative stereo) [compound 241], 7.40. Still for that read-out and setting: the result for “N-[2-(1,1-Dioxo-thiomorpholin-4-yl)ethyl]-4-(2-phenylchroman-6-yloxy)-cyclohexylamine [compound 138]” reads 6.22.
